Source: patent publication US5753617A, “Peptide inhibitors of cellular adhesion” (Centocor, Inc., priority 1995, dated 1998)
Where a SMILES comes first, the peptide text is derived from it. Bridges are numbered along the chain shown (N, C = ends). [ ]: non-standard residue; d: D form. dPen = CC(C)(S)[C@@H](N)C(=O)O; Dap = NC[C@H](N)C(=O)O

The molecules below were run against T1, P-selectin (Homo sapiens, UniProt P16109) (assay: Inhibition of human neutrophil adhesion to purified P-selectin immobilized on plastic wells). Conditions: inhibiting the binding of human neutrophils to P-selectin.
T1 construct: P-selectin is isolated from human platelet lysates; from tissue; host or cells: human platelets (outdated platelet packs from a blood bank)
T1 sequence (P16109 42-830): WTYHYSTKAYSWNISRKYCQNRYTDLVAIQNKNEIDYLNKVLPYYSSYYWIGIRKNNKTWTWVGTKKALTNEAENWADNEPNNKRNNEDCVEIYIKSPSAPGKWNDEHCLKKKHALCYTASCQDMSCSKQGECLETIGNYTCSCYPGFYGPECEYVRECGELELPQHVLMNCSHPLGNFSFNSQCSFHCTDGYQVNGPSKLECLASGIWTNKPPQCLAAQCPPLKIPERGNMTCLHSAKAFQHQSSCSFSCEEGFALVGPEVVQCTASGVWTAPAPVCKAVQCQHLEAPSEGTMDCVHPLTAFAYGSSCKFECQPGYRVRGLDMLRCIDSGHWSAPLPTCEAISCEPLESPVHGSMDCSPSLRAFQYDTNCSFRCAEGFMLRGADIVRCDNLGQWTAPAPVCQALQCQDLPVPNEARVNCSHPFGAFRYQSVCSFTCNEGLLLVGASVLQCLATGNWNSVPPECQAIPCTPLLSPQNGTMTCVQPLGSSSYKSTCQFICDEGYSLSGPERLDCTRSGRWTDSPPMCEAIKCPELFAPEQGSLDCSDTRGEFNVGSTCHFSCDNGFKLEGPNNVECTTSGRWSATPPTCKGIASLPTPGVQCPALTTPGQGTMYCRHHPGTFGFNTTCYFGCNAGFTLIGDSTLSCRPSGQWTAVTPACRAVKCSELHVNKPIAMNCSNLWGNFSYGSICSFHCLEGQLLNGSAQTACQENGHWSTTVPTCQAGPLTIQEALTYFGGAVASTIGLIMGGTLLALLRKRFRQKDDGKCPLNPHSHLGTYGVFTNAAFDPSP
Format: cell-based
Excerpt: Peptides can be screened for their ability to inhibit adhesion to cells, for example, neutrophil adhesion to purified P-selectin immobilized on plastic wells, using the assay described by Geng, et al., Nature 343, 757-760 (1990). Human neutrophils are isolated from heparinized whole blood by density gradient centrifugation on Mono-Poly resolving media, Flow Laboratories. Neutrophil suspensions are greater than 98% pure and greater than 95% viable by trypan blue exclusion. For adhesion assays, neutrophils are suspended at a concentration of 2×10^6 cells/mL in Hanks' balanced salt solution containing 1.26 mM Ca^2+ and 0.81 mM Mg^2+ (HBSS, Gibco) with […] human serum albumin (HBSS/HSA). Adhesion assays are conducted in triplicate in 96-well microliter plates, Corning, incubated at 4° C. overnight with 50 microliters of various protein solutions. P-selectin is isolated from human platelet lysates by immunoaffinity chromatography on antibody S12-Sepharose™ and ion-exchange chromatography on a Mono-Q™ column (FLPC, Pharmacia Fine Chemicals), as follows. Outdated human platelet packs (100 units) obtained from a blood bank and stored at 4° C. are pooled, adjusted to 5 mM EDTA at pH 7.5, centrifuged at 4,000 rpm for 30 minutes in 1 liter bottles, then washed three times with 1 liter of 0.1M NaCl, 20 mM Tris pH 7.5 (TBS), 5 mM EDTA, 5 mM benzamidine. The pellets are then resuspended in a minimum amount of wash buffer and made 1 mM in DIFP, then frozen in 50 mL screwtop tubes at -80° C. The frozen platelets are thawed and resuspended in 50 mL TBS, 5 mM benzamidine, 5 mM EDTA pH 7.5, […]. The suspension is frozen and thawed two times in a dry ice-acetone bath using a 600 mL lyophilizing flask, then homogenized in a glass/teflon mortar and pestle and made 1 mM in DIFP. The NaCl concentration is adjusted to 0.5M with a stock solution of 4M NaCl. After stirring the suspension at 4° C., it is centrifuged in polycarbonate tubes at 33,000 rpm for 60 minutes at 4° C. The supernatant (0.5M NaCl wash) is removed and saved; this supernatant contains the soluble form of P-selectin. Care is taken not to remove the top part of the pellet with the supernatant. The pellets are then homogenized in extraction buffer (TBS, 5 mM benzamidine, 5 mM EDTA, pH 7.5, 100 μM leupeptin, 2% Triton X-100). After centrifugation at 19,500 rpm for 25 minutes at 4° C., the supernatant is removed. The extraction procedure is repeated with the pellet and the supernatant is combined with the first supernatant. The combined extracts, which contain the membrane form of P-selectin, are adjusted to 0.5M NaCl. The soluble fraction (0.5M NaCl wash) and the membrane extract (also adjusted to 0.5M NaCl) are absorbed with separate pools of the monoclonal antibody S12 (directed to P-selectin) previously couple […]) at 5 mg/mL for 2 hours at 4° C. After letting the resins settle, the supernatants are removed. The S12 Affigel containing bound GMP-140 is then loaded into a column and washed overnight at 4° C. with 400 mL of 0.5M NaCl, 20 mM Tris pH 7.5, 0.01% Lubrol PX. Bound P-selectin is eluted from the S12 Affigel with 100 mL of 80% ethylene glycol, 1 mM MES pH 6.0, 0.01% Lubrol PX. Peak fractions with absorbance at 280 nm are pooled. Eluates are dialyzed against TBS with 0.05% Lubrol, then applied to a Mono Q column (FPLC from Pharmacia). The concentrated protein is step eluted with 2M NaCl, 20 mM Tris pH 7.5 (plus 0.05% Lubrol PX for the membrane fraction). Peak fractions are dialyzed into TBS pH 7.5 (plus 0.05% Lubrol PX for the membrane fraction). P-selectin is plated at 5 micrograms/mL and the control proteins: human serum albumin (Alb), platelet glycoprotein IIb/IIIa (IIb), von Willebrand factor (vWF), fibrinogen (FIB), thrombomodulin (TM), gelatin (GEL) or human serum (HS), are added at 50 micrograms/mL. […]

In order of falling IC50:
1. C[C@@H](O)[C@H](NC(=O)[C@H](Cc1c[nH]c2ccccc12)NC(=O)[C@@H]1CSSC[C@H](NC(=O)[C@H](CCCCN)NC(=O)[C@@H](N)CCCNC(=N)N)C(=O)NCC(=O)NCC(=O)N1)C(=O)N[C@@H](Cc1c[nH]c2ccccc12)C(N)=O [(7)] (H-RKCGGCWTW-NH2; disulfide 3-6)  610 µM
2. CC(C)[C@@H](NC(=O)[C@@H](Cc1c[nH]c2ccccc12)NC(=O)[C@H](NC(=O)[C@@H](Cc1c[nH]c2ccccc12)NC(=O)[C@H]1CSSC[C@@H](NC(=O)[C@@H](CCCCN)NC(=O)[C@H](N)CCCNC(=N)N)C(=O)N2CCC[C@@H]2C(=O)NCC(=O)N1)[C@H](C)O)C(N)=O [(15)] (H-[dR][dK][dC][dP]G[dC][dW][dT][dW][dV]-NH2; disulfide 3-6)  485 µM
3. CC(C)[C@@H](NC(=O)[C@@H](Cc1c[nH]c2ccccc12)NC(=O)[C@H](NC(=O)[C@@H](Cc1c[nH]c2ccccc12)NC(=O)[C@H]1CSSC[C@@H](N)C(=O)NCC(=O)NCC(=O)N1)[C@H](C)O)C(N)=O [(28)] (H-[dC]GG[dC][dW][dT][dW][dV]-NH2; disulfide 1-4)  311 µM
4. CC(C)[C@@H](NC(=O)[C@@H](Cc1c[nH]c2ccccc12)NC(=O)[C@@H](CCC(N)=O)NC(=O)[C@H](NC(=O)[C@@H](Cc1c[nH]c2ccccc12)NC(=O)[C@H]1CSSC[C@@H](NC(=O)[C@@H](CCCCN)NC(=O)[C@H](N)CCCNC(=N)N)C(=O)NCC(=O)NCC(=O)N1)[C@H](C)O)C(N)=O [(17)] (H-[dR][dK][dC]GG[dC][dW][dT][dQ][dW][dV]-NH2; disulfide 3-6)  225 µM
5. CC[C@H](C)[C@@H]1NC(=O)CNC(=O)CNC(=O)[C@H]([C@@H](C)CC)NC(=O)[C@H](CCCCN)NC(=O)[C@@H](N)CSSC[C@@H](C(N)=O)NC(=O)[C@H](Cc2c[nH]c3ccccc23)NC(=O)[C@H]([C@@H](C)O)NC(=O)[C@H](Cc2c[nH]c3ccccc23)NC1=O [(3)] (H-CKIGGIWTWC-NH2; disulfide 1-10)  131 µM
6. C[C@H](O)[C@@H](NC(=O)[C@@H](Cc1c[nH]c2ccccc12)NC(=O)[C@H]1CSSC[C@@H](NC(=O)[C@@H](CCCCN)NC(=O)[C@H](N)CCCNC(=N)N)C(=O)NCC(=O)NCC(=O)N1)C(=O)N[C@H](Cc1c[nH]c2ccccc12)C(N)=O [(8)] (H-[dR][dK][dC]GG[dC][dW][dT][dW]-NH2; disulfide 3-6)  97 µM
7. CC[C@H](C)[C@@H]1NC(=O)[C@H](CCCCN)NC(=O)[C@@H](N)CCCCNC(=O)CC[C@@H](C(=O)N[C@@H](Cc2c[nH]c3ccccc23)C(=O)N[C@H](C(=O)N[C@@H](Cc2c[nH]c3ccccc23)C(=O)N[C@H](C(N)=O)C(C)C)[C@@H](C)O)NC(=O)CNC(=O)CNC1=O [(2)] (H-KKIGGEWTWV-NH2; lactam 1-6)  69 µM
8. CC(C)[C@H](NC(=O)[C@H](Cc1c[nH]c2ccccc12)NC(=O)[C@@H](NC(=O)[C@H](Cc1c[nH]c2ccccc12)NC(=O)[C@@H]1CSSC[C@H](N)C(=O)N[C@@H](CCCNC(=N)N)C(=O)NCC(=O)NCC(=O)N1)[C@@H](C)O)C(N)=O [(6)] (H-CRGGCWTWV-NH2; disulfide 1-5)  54 µM
9. CC(C)[C@H](NC(=O)[C@H](Cc1c[nH]c2ccccc12)NC(=O)[C@@H](NC(=O)[C@H](Cc1c[nH]c2ccccc12)NC(=O)[C@@H]1NC(=O)CNC(=O)CNC(=O)[C@H](NC(=O)[C@H](CCCCN)NC(=O)[C@@H](N)CCCNC(=N)N)C(C)(C)SSC1(C)C)[C@@H](C)O)C(N)=O [(24)] (H-RK[dPen]GG[dPen]WTWV-NH2; disulfide 3-6)  41 µM
10. CC(C)[C@@H](NC(=O)[C@@H](Cc1c[nH]c2ccccc12)NC(=O)[C@H](NC(=O)[C@@H](Cc1ccccc1)NC(=O)[C@H]1CSSC[C@@H](NC(=O)[C@@H](CCCCN)NC(=O)[C@H](N)CCCNC(=N)N)C(=O)NCC(=O)NCC(=O)N1)[C@H](C)O)C(N)=O [(14)] (H-[dR][dK][dC]GG[dC][dF][dT][dW][dV]-NH2; disulfide 3-6)  40 µM
11. CC[C@H](C)[C@@H]1NC(=O)[C@@H](NC(=O)[C@@H](N)CCCNC(=N)N)CSSC[C@@H](C(=O)N[C@@H](Cc2c[nH]c3ccccc23)C(=O)N[C@H](C(=O)N[C@@H](Cc2c[nH]c3ccccc23)C(=O)N[C@H](C(N)=O)C(C)C)[C@@H](C)O)NC(=O)CNC(=O)CNC1=O [(5)] (H-RCIGGCWTWV-NH2; disulfide 2-6)  36 µM
12. CC(C)[C@H](NC(=O)[C@H](Cc1c[nH]c2ccccc12)NC(=O)[C@@H](NC(=O)[C@H](Cc1c[nH]c2ccccc12)NC(=O)[C@@H]1CSSC(C)(C)[C@@H](NC(=O)[C@H](CCCCN)NC(=O)[C@@H](N)CCCNC(=N)N)C(=O)NCC(=O)NCC(=O)N1)[C@@H](C)O)C(N)=O [(23)] (H-RK[dPen]GGCWTWV-NH2; disulfide 3-6)  36 µM
13. CC(C)[C@H](NC(=O)[C@H](Cc1c[nH]c2ccccc12)NC(=O)[C@@H](NC(=O)[C@H](Cc1c[nH]c2ccccc12)NC(=O)[C@@H]1NC(=O)CNC(=O)CNC(=O)[C@@H](NC(=O)[C@H](CCCCN)NC(=O)[C@@H](N)CCCNC(=N)N)CSSC1(C)C)[C@@H](C)O)C(N)=O [(10)] (H-RKCGG[dPen]WTWV-NH2; disulfide 3-6)  30 µM
14. CC(C)[C@@H](NC(=O)[C@@H](Cc1c[nH]c2ccccc12)NC(=O)[C@H](NC(=O)[C@@H](Cc1c[nH]c2ccccc12)NC(=O)[C@H]1CSSC[C@@H](NC(=O)[C@H](N)CCCCN)C(=O)NCC(=O)NCC(=O)N1)[C@H](C)O)C(N)=O [(26)] (H-[dK][dC]GG[dC][dW][dT][dW][dV]-NH2; disulfide 2-5)  26 µM
15. CC(C)[C@H](NC(=O)[C@H](Cc1c[nH]c2ccccc12)NC(=O)[C@@H](NC(=O)[C@H](Cc1c[nH]c2ccccc12)NC(=O)[C@@H]1CC(=O)NC[C@H](NC(=O)[C@H](CCCCN)NC(=O)[C@@H](N)CCCNC(=N)N)C(=O)NCC(=O)NCC(=O)N1)[C@@H](C)O)C(N)=O [(22)] (H-RK[Dap]GGDWTWV-NH2; lactam 3-6)  13 µM
16. CC(C)[C@@H](NC(=O)[C@@H](Cc1c[nH]c2ccccc12)NC(=O)[C@H](NC(=O)[C@@H](Cc1c[nH]c2ccccc12)NC(=O)[C@H]1CSSC[C@@H](NC(=O)[C@@H](CCCCN)NC(=O)[C@H](N)CCCNC(=N)N)C(=O)NCC(=O)N2CCC[C@@H]2C(=O)N1)[C@H](C)O)C(N)=O [(16)] (H-[dR][dK][dC]G[dP][dC][dW][dT][dW][dV]-NH2; disulfide 3-6)  1 µM
